The structures appear in SMILES notation.

The conditions of the data set: salt at 5% by weight in about 10 g tablets with 75% to 95% by weight calcium hypochlorite; FIGS. 6-8. An excerpt: The amount of calcium hypochlorite within each example ranged from 75% by weight to 95% by weight, while the various salts were included at 5% by weight, if at all.
Consider `O=C([O-])[O-].[Ca+2]` [calcium carbonate], for which the “effect of additive on dissolution of the calcium hypochlorite” value (shortened to “effect … of the calcium hypochlorite”) is “increase the rate of dissolution”.

Turning to `O=S(=O)([O-])[O-].[Ca+2]` [calcium sulfate], the “effect … of the calcium hypochlorite” value was “slow dissolution”. In the case of `[Mg+2].[OH-].[OH-]` [magnesium hydroxide], the “effect … of the calcium hypochlorite” value is “slow dissolution”. The value for `O=S(=O)([O-])[O-].[Mg+2]` [magnesium sulfate] was “slow dissolution”. With `O=C([O-])[O-].[Na+].[Na+]` [sodium carbonate], the “effect … of the calcium hypochlorite” value is listed as “slow dissolution”.

These data come from US20120258156A1, “SHAPED COMPOSITIONS FOR UNIFORM DELIVERY OF A FUNCTIONAL AGENT” (priority 2011, published 2012).
